# Legend:
# Type in all cases: cell-based, human
# [1] = test system: GSCs (T387, T4121, and U87); experiment: Cell viability (cell titer) assay on glioma stem cells; details: MK-8931 10 and 50 μg/mL, three days
# Protocol: (§1) FIG. 16, panels A-E. MK-8931 Treatment Had Little Effect on Glioma Stem Cells. (A and B) Tumorsphere formation assay to examine the effect of MK-8931 treatment on glioma stem cells (GSCs). Representative images (A) of tumorsphere derived from T4121 GSCs treated with MK-8931 (50 μg/mL) or the vehicle control. Quantifications (B) show the number and size of tumorsphere derived from T4121 GSCs treated with MK-8931 (50 μg/mL) or the control. Data are shown as mean±SEM. NS (not significant)≥0.05, Student's t-test. […] GAPDH was blotted as loading control. (D) Immunoblot analysis of the apoptotic markers cleaved-PARP and cleaved caspase-3 in GSCs (T387 and T4121) treated with MK-8931 (50 μg/mL), etoposide (Etop, 1 μM), or the vehicle control for different time as indicated. GAPDH was blotted as loading control. […] Ctl: Control; Etop: Etoposide. (E) Cell viability assay to examine the effect of MK-8931 treatment on proliferation of glioma stem cells. […] Data are shown as mean±SEM. NS (not significant)≥0.05, Student's t-test.
# Cell viability assay was performed by using a Cell Titer-Glo Luminescent Cell Viability Assay Kit according to the manufacturer's instruction (Promega, G7571). For this assay, 1,000 cells were seeded on one well of a 96-well plate in 100 μL of stem cell medium. […] Plate was loaded on the VICTOR Multilabel Plate Reader (PerkinElmer) and the readout were recorded and analyzed. […]
# [2] = test system: iPSC-derived M2 macrophages; experiment: Fluorescent phagocytosis assay, iPSC-derived M2 macrophages against lung ADC cells (H1002); parameters: dose or concentration left out as unconfirmed; details: MK-8931 two days, p<0.01
# Text: FIG. 10, panels A-C. MK-8931 Treatment Promotes Phagocytosis of iPSC-derived M2 Macrophages against Human Lung ADC Cancer Cells. (A) Immunofluorescent analysis of macrophage marker expression in iPSC-derived M2 macrophages. The iPSC-derived M2 macrophages (GFP+) and the matched iPSCs (GFP+, control) were stained with specific antibodies against IBA1 (total macrophage marker, in red) and FIZZ1 (M2 macrophage marker, in red) and then counterstained with DAPI (in blue). […] (B and C) In vitro macrophage phagocytosis assay showing that the BACE1 inhibitor MK-8931 promoted phagocytosis of the iPSC-derived macrophages against human lung ADC cancer cells. […] Scale bars represent 3 μM. […]
# In this assay, we detected macrophage phagocytosis as fluorescent inclusion bodies of the cancer cells (tdTomato^+) within macrophages (GFP^+). […] Thus, potential small molecules that can activate macrophages (GFP*) to phagocytize glioma cells (tdTomato*) could be detected under a fluorescent microscope during the screening (FIG. 1C).
# To screen for potential small molecules activating phagocytosis of iPSC-derived M2 macrophages against human cancer cells, GFP^+ iPSC-derived M2 macrophages (5×10^4 cells) were seeded in each well of 24-well plates and treated by small molecules for two days. […] The phagocytosis was measured as the number of inclusion bodies of cancer cells (in red) within macrophages (in green).
# T4121 GSCs = experiment: Tumorsphere formation assay; details: MK-8931 50 μg/mL
# Protocol: as §1
# Tumorsphere formation assay was performed as described in our previous study (Shi et al., 2018). Glioma cells (1000 cells) were plated on the one well of a 96-well plate and maintained in the stem cell medium. […] The sizes and numbers of the tumor-sphere in the control and MK-8931 groups were furthered analyzed with ImageJ.
smiles,measurement,setting,value
CN1C(N)=N[C@](C)(c2cc(NC(=O)c3ccc(F)cn3)ccc2F)CS1(=O)=O [MK-8931],proliferation / cell viability of glioma stem cells (cell titer),[1],did not affect
same,phagocytosis of iPSC-derived macrophages against human lung ADC cancer cells,[2],potently induced phagocytosis of iPSC-derived macrophages
same,number and size of tumorspheres,T4121 GSCs,did not affect GSC sphere formation
